Data taken from US20130101527A1, “METHODS, COMPOUNDS AND PHARMACEUTICAL COMPOSITIONS FOR TREATING NEUROLOGICAL DISORDERS” (priority 2011, published 2013).

Experiments:
healthy adults = assay: Seven-scale questionnaire before and after octanol administration; type: in vivo, human; details: 0.1 mg/kg, questionnaire before, 5-10 min and 120 min after
Method: (§1) The database comprises 29 healthy adults from 25-52 years of age (12 women and 17 men).
(§2) Octanol is a straight chain fatty alcohol with 8 carbon atoms CH3(CH2)7OH, and was formulated in an oral mucosal delivery format with appropriate organoleptic characteristics. It was self-administered at 0.1 mg/kg. Participants were instructed to use the spray as they would a breathe spray.
A seven-scale questionnaire was used before and at 5-10 minutes and 120 minutes, respectively, after octanol administration to examine the level of relaxation, concentration, worry, sleepiness, stress, pain and the octanol taste.

[1] = tested on: Spontaneous Brain Activity in Healthy Adults; assay: MEG recordings of spontaneous activity, spectral analysis and ICA localization before and after self-administration of 1-octanol; type: in vivo, human
Method: as §1
Spontaneous activity was recorded using a 275 channel (CTF) MEG. Six 7-min recordings were made with the eyes closed. One recording was made before self-administration of 1-Octanol. The others were made at 15, 30, 60, 90 and 120 min after.
A multi-taper approach, which provides reduced-variance calculations of frequency, was used to generate frequency spectra from each set of recordings. Changes in the power spectrum after octanol was determined by first calculating the mean spectra energy (MSE) in 2 Hz frequency bands starting at 2.5 Hz. Logarithmic transformation was applied to the power data and then the mean spectral energy (MSE) was calculated for each band before and after octanol administration. The difference in MSE before and after octanol was then calculated for each participant and the grand mean calculated (FIG. 3).
as §2
Independent component analysis (ICA) was carried out on the sensor data using the Infomax EEGLab algorithm. The magnetic field described by the ICs was localized onto a volumetric source space constructed from a population-averaged MRI using a recursive weighted minimum norm algorithm.

GABAA Receptors = details: Kurata et al., Mol Pharmacol. 1999, cited from earlier work
[2] = cited from earlier work
harmaline-induced tremor = details: cited from earlier work
[3] = tested on: T-type (Cav3.1) calcium channels; details: in vitro; cited from earlier work
[4] = tested on: Spontaneous Brain Activity in Healthy Adults; assay: MEG recordings of spontaneous activity, spectral analysis and ICA localization before and after self-administration of 1-octanol; type: in vivo, human; details: all subjects, five times after octanol (grand mean, s.e.m), FIG. 2
TCD in an animal model = details: cited from earlier work
[5] = tested on: patients with essential tremor; details: cited from earlier work
saliva-amylase = target: T1, saliva-amylase (Homo sapiens, UniProt P0DUB6); details: cited from earlier work
T1 sequence (P0DUB6 16-511): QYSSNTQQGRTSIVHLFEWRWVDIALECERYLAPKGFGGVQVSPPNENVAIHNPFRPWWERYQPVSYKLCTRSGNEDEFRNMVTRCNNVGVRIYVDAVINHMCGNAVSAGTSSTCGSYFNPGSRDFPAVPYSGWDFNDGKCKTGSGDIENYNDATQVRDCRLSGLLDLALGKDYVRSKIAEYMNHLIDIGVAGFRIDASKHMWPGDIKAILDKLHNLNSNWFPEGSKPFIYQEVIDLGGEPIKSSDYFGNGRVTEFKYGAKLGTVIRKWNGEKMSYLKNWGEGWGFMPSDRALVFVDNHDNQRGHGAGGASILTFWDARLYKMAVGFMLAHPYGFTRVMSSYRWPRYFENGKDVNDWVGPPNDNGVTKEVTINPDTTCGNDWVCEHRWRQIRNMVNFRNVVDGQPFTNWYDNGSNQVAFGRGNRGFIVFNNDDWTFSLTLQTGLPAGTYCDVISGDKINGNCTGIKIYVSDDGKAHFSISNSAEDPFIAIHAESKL

[6] = example subject with low frequency peaks, FIG. 5
[7] = healthy adults, 0.1 mg/kg self-administered oral mucosal spray, MEG

With `CCCCCCCCO` [Example 1-octanol, 1-octanol] the “general, self-reported measures of wellness” value (healthy adults) was “no effect”, the “number of ICA components in the alpha range” value ([1]; after octanol administration, FIG. 6) was “increased” and the “Localization of the alpha rhythms to the posterior part of the brain (ICA)” value ([1]; before and 90 minutes after octanol, FIG. 4) was “not affected”. For the same compound, the “alpha range peak (8.5-10.4 Hz)” value [1, 6] was “increased”, the “delta range peaks (2.5-4.4 Hz)” value [1, 6] was “reduced” and the “abnormal, delta range activity” value [1, 7] was “reducing”. The “normal, alpha range activity” value [1, 7] was “increases”, the beta range activity ([1]; healthy subjects, MEG) was “did not promote a significant increase” and the “lower alpha band power” value ([1]; healthy subjects, MEG) was “significantly increased”. For the same compound, the “power spectra in the low alpha range” value ([1]; most of the subjects, FIG. 1) was “increase and broadening”, the “power at lower frequencies” value ([1]; most subjects, FIG. 3) was “no change” and the low frequency peaks ([1]; some subjects, FIG. 7) was “not affected”. The gamma range activity ([1]; some subjects, MEG) was “increase”, the “higher theta range activity” value ([1]; some subjects, MEG) was “tendency for potentiating” and the “ICA components with delta range peaks” value ([1]; two hours after octanol administration, FIG. 6) was “no components”. The “low doses at which octanol is a slight allosteric potentiator of GABA” value (GABAA Receptors) was 1-10 μm, the “action on GABA at a higher dose” value (GABAA Receptors; higher dose) was “allosteric inhibitor” and the accepted daily intake ([2]; as flavoring agent in food and cosmetics, FDA and Council of Europe) was 1 mg/kg. The liver toxicity ([2]; higher dosages) was “associated with liver toxicity”, the harmaline-induced tremor (harmaline-induced tremor) was “prevents” and the inferior olivary oscillations [3] was “reduces”. For the same compound, the “low threshold calcium currents in thalamic and inferior olivary neurons” value [3] was “reversibly reduces”, the “Difference in Mean Spectral Energy, alpha range” value [4] was “clear increase” and the “Difference in Mean Spectral Energy, delta range” value [4] was “decrease”. For the same compound, the “effect in TCD in an animal model” value (TCD in an animal model) was “effective” and the “tremor in patients with essential tremor” value [5] was “reduce tremor”.
For `OC[C@H]1O[C@@H]2O[C@H]3[C@H](O)[C@@H](O)[C@@H](O[C@H]4[C@H](O)[C@@H](O)[C@@H](O[C@H]5[C@H](O)[C@@H](O)[C@@H](O[C@H]6[C@H](O)[C@@H](O)[C@@H](O[C@H]7[C@H](O)[C@@H](O)[C@@H](O[C@H]8[C@H](O)[C@@H](O)[C@@H](O[C@H]9[C@H](O)[C@@H](O)[C@@H](O[C@H]1[C@H](O)[C@H]2O)O[C@@H]9CO)O[C@@H]8CO)O[C@@H]7CO)O[C@@H]6CO)O[C@@H]5CO)O[C@@H]4CO)O[C@@H]3CO` [γ-CD, γ-cyclodextrin], the “susceptibility to saliva-amylase degradation” value (saliva-amylase) is listed as “highly susceptible”.
